Measurements taken from the supplement of paper PMC12076712.

What was measured:
Experiment in all cases: pIC50, kinobeads binding competition
Conditions in all cases: cell material: Jurkat lysate
FGR = FGR (UniProt P09769)
STK35 = STK35 (UniProt Q8TDR2)
TTK = molecular target: T1, TTK (UniProt P33981)
T1 sequence (whole entry): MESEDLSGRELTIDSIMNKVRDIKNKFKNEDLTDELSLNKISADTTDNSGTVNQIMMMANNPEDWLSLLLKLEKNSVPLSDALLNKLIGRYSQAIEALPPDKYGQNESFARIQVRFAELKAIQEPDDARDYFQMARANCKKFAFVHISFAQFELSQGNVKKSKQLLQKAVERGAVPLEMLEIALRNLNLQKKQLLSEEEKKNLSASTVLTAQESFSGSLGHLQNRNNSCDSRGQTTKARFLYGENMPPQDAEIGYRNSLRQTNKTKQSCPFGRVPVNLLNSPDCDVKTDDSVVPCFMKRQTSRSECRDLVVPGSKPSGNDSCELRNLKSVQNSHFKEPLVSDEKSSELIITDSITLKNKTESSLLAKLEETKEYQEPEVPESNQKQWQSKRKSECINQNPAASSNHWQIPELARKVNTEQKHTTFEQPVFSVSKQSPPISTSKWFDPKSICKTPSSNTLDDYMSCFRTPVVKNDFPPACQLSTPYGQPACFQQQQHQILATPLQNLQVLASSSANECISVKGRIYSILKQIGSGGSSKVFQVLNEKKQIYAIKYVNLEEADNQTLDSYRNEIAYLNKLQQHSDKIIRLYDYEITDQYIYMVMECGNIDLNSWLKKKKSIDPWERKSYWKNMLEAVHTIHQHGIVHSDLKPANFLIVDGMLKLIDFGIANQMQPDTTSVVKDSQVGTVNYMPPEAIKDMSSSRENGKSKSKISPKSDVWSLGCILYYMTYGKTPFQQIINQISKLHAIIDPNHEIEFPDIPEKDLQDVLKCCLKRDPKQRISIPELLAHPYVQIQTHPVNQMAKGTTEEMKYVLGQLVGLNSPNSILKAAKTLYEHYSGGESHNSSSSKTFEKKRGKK

BUB1 = BUB1 (UniProt O43683)
Sequence of BUB1 (O43683 whole entry, looked up): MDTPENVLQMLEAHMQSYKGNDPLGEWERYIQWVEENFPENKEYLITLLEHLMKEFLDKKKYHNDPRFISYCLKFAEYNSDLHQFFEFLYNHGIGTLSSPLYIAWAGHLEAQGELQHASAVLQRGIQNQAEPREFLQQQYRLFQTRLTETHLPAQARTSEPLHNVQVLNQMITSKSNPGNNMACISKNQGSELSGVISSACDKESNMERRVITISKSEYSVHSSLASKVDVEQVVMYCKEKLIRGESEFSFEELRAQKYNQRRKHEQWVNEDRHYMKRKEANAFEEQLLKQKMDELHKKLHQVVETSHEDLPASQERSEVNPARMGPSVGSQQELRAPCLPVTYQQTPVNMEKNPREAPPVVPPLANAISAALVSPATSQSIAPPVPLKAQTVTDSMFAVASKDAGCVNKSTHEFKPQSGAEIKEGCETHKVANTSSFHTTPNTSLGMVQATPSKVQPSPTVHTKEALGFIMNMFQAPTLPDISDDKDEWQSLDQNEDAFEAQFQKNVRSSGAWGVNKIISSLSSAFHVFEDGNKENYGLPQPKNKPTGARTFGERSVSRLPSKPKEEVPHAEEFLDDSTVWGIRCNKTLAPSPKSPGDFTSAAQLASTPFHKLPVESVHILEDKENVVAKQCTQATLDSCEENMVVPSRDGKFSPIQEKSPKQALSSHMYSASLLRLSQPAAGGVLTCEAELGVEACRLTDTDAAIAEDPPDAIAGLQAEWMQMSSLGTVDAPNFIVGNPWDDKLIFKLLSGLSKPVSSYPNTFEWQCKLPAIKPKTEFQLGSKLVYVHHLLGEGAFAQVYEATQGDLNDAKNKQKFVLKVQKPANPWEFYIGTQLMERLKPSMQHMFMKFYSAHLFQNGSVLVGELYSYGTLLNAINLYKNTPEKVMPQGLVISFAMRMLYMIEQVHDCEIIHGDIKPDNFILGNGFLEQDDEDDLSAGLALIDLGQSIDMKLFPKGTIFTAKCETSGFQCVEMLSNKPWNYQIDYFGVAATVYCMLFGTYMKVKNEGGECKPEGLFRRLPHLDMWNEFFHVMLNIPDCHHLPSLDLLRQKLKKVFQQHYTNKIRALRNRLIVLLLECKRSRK

WEE1 = WEE1 (UniProt P30291)
Sequence of WEE1 (P30291 whole entry, looked up): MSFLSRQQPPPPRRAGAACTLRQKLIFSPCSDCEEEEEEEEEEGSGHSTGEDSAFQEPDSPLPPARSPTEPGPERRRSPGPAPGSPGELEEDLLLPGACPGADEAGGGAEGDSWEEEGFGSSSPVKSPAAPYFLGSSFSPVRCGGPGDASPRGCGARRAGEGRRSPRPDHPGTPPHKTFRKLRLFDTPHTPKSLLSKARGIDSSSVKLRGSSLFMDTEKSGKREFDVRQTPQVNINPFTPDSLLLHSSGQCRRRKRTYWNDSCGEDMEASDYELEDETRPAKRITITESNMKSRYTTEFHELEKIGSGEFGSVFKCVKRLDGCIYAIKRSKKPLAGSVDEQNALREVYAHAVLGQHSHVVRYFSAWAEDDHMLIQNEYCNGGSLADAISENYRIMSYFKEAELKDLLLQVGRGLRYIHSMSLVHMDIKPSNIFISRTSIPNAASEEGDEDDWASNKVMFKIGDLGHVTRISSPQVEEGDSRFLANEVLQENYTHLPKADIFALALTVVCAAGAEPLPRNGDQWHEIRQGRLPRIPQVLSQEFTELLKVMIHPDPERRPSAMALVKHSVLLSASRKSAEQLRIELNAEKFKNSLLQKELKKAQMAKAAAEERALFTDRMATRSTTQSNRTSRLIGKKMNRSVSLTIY

UniProt Q92918 = molecular target: UniProt Q92918
Sequence of UniProt Q92918 (Q92918 whole entry, looked up): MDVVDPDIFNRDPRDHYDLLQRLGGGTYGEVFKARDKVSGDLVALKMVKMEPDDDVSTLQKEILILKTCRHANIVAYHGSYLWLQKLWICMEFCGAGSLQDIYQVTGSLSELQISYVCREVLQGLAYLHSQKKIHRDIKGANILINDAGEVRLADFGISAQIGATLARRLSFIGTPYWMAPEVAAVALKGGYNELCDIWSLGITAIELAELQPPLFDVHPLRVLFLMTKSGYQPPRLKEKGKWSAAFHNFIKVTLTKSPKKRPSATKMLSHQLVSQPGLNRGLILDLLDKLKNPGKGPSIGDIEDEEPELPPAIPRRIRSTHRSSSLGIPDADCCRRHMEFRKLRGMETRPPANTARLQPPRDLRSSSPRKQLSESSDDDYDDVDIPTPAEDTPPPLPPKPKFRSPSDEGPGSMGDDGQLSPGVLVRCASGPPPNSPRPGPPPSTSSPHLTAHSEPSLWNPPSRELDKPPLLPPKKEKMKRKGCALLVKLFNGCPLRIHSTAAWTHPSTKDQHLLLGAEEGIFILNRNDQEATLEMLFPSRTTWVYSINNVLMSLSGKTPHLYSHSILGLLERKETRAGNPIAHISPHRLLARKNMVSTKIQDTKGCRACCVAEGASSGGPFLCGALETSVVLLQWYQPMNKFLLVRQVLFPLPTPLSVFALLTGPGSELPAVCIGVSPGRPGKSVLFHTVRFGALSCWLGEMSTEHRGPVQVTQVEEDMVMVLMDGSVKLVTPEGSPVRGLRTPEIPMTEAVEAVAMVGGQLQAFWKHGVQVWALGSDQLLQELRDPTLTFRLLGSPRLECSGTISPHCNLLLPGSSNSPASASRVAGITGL

UniProt Q8TF76 = molecular target: T2, UniProt Q8TF76
T2 sequence (whole entry): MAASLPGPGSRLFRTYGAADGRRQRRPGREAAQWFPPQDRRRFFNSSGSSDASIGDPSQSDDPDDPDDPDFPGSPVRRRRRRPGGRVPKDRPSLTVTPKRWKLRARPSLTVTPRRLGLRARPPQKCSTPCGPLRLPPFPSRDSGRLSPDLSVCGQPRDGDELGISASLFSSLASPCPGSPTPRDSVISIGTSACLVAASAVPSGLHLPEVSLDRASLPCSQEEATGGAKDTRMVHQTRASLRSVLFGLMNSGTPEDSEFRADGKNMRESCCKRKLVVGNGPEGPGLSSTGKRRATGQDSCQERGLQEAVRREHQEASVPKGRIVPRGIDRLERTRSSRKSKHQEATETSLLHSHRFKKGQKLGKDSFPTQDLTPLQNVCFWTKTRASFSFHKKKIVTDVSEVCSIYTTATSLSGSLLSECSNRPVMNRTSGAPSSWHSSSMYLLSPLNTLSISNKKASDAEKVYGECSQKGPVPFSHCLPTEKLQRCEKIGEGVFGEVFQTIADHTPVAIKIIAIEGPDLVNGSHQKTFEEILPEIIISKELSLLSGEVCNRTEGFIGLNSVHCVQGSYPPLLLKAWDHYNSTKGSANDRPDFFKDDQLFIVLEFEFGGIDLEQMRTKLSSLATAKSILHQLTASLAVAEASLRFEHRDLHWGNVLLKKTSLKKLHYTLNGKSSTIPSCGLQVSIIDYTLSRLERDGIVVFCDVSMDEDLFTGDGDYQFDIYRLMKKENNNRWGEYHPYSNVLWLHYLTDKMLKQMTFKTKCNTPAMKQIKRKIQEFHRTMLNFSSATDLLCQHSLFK

UniProt Q16512 = molecular target: UniProt Q16512
Sequence of UniProt Q16512 (Q16512 whole entry, looked up): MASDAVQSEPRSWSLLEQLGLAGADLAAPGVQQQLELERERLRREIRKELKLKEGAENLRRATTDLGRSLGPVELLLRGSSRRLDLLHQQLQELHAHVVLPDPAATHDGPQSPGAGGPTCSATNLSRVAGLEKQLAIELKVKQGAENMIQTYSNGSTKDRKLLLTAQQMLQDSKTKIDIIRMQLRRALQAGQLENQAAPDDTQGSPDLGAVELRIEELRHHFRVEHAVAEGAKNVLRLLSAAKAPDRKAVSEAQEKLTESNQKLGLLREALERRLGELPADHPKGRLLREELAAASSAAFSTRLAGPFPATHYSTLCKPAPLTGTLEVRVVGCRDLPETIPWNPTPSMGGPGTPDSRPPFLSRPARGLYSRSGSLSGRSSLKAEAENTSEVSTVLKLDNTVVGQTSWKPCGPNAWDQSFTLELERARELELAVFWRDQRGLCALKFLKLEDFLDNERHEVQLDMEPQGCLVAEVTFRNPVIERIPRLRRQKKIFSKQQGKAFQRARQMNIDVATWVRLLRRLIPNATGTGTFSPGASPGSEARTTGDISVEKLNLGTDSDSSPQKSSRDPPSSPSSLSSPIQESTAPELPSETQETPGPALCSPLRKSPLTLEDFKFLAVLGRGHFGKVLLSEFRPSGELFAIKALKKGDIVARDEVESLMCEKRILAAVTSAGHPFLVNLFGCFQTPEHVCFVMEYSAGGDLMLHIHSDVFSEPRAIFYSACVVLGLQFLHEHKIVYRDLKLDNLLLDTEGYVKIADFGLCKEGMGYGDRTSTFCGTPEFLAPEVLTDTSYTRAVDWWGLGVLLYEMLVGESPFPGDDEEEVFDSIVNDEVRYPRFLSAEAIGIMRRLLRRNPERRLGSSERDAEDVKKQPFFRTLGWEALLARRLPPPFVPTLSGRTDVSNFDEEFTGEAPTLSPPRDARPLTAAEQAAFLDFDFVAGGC

UniProt P35626 = molecular target: T3, UniProt P35626
T3 sequence (whole entry): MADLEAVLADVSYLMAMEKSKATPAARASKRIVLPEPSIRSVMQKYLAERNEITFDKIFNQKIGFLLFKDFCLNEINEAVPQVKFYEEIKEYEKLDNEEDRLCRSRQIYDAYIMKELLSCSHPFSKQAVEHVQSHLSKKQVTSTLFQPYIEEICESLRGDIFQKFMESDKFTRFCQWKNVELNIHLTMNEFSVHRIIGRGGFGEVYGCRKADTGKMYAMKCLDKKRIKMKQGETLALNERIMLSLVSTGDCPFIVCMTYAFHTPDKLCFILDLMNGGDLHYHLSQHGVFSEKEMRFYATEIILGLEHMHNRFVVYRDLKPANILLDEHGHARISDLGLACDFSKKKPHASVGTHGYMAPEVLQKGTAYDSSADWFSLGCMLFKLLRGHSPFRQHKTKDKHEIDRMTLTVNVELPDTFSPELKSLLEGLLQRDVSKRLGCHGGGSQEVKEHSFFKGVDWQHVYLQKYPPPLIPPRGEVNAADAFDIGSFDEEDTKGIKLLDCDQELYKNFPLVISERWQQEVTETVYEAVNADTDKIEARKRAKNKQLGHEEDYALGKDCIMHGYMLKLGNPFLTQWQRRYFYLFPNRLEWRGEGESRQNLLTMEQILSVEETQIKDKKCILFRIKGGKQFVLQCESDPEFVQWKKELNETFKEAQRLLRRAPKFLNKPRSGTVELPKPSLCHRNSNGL

TESK2 = TESK2 (UniProt Q96S53)

Sequence of STK35 (Q8TDR2 whole entry): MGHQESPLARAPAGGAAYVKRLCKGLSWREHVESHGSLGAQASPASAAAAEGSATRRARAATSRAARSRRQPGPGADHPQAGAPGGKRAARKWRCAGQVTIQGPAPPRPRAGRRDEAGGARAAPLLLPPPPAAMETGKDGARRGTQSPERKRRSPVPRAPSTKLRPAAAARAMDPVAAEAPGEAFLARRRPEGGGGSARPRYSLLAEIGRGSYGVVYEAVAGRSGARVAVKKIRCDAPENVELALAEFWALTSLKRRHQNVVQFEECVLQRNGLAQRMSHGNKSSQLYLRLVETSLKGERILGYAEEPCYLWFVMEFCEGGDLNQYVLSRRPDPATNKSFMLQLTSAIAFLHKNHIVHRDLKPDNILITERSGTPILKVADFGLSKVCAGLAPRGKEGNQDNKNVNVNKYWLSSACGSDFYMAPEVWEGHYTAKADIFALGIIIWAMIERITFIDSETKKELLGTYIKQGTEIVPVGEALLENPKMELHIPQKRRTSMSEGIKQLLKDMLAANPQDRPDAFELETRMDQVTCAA
Sequence of FGR (P09769 whole entry, looked up): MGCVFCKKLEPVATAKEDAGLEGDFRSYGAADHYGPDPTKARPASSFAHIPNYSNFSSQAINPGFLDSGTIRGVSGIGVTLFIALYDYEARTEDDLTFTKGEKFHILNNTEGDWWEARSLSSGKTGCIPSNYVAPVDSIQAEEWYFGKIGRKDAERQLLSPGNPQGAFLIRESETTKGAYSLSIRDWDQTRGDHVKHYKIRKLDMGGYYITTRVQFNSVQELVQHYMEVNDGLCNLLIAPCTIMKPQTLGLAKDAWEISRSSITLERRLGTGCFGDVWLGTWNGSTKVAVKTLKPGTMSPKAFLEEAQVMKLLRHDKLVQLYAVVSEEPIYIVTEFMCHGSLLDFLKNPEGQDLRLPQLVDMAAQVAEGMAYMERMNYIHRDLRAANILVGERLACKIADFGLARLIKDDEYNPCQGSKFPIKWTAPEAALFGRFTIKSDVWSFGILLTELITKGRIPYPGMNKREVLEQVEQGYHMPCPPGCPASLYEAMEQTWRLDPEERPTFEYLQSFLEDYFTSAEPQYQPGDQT

- pIC50 (FGR): < 4.52
- pIC50 (STK35): < 4.52
- pIC50 (TTK): < 4.52
- pIC50 (BUB1): < 4.52
- pIC50 (WEE1): < 4.52
- pIC50 (UniProt Q92918): < 4.52
- pIC50 (UniProt Q8TF76): < 4.52
- pIC50 (UniProt Q16512): < 4.52
- pIC50 (UniProt P35626): < 4.52
- pIC50 (TESK2): < 4.52
SMILES: CCc1cnn2c(NCc3ccc[n+]([O-])c3)cc(N3CCCC[C@H]3CCO)nc12 [dinaciclib]
